Columns and labels:
p300 = target: T1, p300 (Homo sapiens, UniProt Q09472); test: P300 degradation, HiBit technology in A549 P300 HiBit cells (2 h); assay type: cell-based; conditions: 2 hrs post treatment; for Dmax: A549, A549 P300 HiBit cells; for DC50: A549 P300 HiBit cells
T1 construct: host or cells: A549 P300 HiBit cells
In short: (§1)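 HiBiT knock-in A549 cells received compound in serial dilution at 37 °C under 5% CO2. Remaining tagged protein was quantified by lytic HiBiT luminescence after 10 min shaking at room temperature, yielding potency and maximal degradation.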

CBP = target: T2, CBP (Homo sapiens, UniProt Q92793); test: CBP degradation, HiBit technology in A549 CBP HiBit cells (24 h); assay type: cell-based; conditions: 24 hrs post treatment
T2 construct: host or cells: A549 CBP HiBit cells
T2 sequence (Q92793 whole entry): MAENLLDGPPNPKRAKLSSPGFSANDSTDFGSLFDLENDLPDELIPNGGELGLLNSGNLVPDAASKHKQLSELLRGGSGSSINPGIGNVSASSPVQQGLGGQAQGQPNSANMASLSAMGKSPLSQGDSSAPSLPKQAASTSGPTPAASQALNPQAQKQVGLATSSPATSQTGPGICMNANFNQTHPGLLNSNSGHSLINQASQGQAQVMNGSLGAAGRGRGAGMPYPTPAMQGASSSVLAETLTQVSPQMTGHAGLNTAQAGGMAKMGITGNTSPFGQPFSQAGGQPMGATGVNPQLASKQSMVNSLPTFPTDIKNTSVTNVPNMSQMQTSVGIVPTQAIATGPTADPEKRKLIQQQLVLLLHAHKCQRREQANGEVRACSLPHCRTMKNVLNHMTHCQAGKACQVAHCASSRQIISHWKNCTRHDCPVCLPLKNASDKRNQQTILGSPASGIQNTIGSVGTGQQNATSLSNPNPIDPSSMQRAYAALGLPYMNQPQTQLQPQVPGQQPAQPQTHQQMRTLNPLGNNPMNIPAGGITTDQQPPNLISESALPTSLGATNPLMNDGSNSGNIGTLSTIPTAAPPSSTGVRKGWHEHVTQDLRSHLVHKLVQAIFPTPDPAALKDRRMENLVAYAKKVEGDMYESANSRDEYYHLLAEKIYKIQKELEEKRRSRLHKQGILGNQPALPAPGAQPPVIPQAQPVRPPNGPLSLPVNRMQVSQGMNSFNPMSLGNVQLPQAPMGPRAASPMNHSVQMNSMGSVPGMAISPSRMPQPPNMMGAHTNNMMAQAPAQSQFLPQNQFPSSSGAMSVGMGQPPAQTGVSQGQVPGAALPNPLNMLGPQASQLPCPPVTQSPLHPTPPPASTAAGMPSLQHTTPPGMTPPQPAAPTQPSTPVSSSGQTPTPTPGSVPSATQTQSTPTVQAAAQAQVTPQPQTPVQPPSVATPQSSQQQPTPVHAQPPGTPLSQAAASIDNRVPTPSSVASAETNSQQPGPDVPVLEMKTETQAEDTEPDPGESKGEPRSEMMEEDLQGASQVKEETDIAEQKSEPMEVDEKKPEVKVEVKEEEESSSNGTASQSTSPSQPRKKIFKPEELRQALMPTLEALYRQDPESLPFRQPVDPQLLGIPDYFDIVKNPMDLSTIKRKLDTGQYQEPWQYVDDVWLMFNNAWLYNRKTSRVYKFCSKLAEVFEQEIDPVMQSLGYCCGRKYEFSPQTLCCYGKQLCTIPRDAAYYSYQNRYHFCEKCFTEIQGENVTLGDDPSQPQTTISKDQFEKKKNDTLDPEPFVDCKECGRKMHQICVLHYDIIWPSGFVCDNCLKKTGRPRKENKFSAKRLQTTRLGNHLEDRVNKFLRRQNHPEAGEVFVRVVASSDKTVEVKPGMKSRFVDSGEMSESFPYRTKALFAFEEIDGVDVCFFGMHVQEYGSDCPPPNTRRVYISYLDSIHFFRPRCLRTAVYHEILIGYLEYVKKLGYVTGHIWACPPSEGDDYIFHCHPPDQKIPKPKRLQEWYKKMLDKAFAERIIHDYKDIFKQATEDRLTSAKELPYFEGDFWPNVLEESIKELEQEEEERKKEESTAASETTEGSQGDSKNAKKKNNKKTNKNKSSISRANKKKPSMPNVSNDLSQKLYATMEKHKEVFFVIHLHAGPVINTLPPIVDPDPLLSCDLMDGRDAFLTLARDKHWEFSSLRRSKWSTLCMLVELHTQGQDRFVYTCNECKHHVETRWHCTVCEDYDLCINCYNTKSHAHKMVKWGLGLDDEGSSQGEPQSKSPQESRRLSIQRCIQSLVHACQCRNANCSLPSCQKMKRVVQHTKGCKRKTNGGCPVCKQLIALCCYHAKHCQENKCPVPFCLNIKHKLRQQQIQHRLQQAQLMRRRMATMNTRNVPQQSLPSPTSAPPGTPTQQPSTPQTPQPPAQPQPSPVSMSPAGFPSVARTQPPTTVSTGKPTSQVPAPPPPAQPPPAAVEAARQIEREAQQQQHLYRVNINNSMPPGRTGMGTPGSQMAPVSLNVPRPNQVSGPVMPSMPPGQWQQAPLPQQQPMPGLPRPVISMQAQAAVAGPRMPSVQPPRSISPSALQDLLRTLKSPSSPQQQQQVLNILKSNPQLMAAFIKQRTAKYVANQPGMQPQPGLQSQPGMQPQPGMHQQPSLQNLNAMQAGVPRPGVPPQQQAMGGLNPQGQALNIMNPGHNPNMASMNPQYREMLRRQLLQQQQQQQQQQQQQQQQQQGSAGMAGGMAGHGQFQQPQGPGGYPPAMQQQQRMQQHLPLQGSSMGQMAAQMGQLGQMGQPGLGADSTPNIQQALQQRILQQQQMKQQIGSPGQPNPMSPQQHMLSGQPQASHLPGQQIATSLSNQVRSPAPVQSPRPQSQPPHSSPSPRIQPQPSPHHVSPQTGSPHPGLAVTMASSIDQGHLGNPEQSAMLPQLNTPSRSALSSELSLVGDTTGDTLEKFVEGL
In short: as §1

T1 sequence (Q09472 whole entry): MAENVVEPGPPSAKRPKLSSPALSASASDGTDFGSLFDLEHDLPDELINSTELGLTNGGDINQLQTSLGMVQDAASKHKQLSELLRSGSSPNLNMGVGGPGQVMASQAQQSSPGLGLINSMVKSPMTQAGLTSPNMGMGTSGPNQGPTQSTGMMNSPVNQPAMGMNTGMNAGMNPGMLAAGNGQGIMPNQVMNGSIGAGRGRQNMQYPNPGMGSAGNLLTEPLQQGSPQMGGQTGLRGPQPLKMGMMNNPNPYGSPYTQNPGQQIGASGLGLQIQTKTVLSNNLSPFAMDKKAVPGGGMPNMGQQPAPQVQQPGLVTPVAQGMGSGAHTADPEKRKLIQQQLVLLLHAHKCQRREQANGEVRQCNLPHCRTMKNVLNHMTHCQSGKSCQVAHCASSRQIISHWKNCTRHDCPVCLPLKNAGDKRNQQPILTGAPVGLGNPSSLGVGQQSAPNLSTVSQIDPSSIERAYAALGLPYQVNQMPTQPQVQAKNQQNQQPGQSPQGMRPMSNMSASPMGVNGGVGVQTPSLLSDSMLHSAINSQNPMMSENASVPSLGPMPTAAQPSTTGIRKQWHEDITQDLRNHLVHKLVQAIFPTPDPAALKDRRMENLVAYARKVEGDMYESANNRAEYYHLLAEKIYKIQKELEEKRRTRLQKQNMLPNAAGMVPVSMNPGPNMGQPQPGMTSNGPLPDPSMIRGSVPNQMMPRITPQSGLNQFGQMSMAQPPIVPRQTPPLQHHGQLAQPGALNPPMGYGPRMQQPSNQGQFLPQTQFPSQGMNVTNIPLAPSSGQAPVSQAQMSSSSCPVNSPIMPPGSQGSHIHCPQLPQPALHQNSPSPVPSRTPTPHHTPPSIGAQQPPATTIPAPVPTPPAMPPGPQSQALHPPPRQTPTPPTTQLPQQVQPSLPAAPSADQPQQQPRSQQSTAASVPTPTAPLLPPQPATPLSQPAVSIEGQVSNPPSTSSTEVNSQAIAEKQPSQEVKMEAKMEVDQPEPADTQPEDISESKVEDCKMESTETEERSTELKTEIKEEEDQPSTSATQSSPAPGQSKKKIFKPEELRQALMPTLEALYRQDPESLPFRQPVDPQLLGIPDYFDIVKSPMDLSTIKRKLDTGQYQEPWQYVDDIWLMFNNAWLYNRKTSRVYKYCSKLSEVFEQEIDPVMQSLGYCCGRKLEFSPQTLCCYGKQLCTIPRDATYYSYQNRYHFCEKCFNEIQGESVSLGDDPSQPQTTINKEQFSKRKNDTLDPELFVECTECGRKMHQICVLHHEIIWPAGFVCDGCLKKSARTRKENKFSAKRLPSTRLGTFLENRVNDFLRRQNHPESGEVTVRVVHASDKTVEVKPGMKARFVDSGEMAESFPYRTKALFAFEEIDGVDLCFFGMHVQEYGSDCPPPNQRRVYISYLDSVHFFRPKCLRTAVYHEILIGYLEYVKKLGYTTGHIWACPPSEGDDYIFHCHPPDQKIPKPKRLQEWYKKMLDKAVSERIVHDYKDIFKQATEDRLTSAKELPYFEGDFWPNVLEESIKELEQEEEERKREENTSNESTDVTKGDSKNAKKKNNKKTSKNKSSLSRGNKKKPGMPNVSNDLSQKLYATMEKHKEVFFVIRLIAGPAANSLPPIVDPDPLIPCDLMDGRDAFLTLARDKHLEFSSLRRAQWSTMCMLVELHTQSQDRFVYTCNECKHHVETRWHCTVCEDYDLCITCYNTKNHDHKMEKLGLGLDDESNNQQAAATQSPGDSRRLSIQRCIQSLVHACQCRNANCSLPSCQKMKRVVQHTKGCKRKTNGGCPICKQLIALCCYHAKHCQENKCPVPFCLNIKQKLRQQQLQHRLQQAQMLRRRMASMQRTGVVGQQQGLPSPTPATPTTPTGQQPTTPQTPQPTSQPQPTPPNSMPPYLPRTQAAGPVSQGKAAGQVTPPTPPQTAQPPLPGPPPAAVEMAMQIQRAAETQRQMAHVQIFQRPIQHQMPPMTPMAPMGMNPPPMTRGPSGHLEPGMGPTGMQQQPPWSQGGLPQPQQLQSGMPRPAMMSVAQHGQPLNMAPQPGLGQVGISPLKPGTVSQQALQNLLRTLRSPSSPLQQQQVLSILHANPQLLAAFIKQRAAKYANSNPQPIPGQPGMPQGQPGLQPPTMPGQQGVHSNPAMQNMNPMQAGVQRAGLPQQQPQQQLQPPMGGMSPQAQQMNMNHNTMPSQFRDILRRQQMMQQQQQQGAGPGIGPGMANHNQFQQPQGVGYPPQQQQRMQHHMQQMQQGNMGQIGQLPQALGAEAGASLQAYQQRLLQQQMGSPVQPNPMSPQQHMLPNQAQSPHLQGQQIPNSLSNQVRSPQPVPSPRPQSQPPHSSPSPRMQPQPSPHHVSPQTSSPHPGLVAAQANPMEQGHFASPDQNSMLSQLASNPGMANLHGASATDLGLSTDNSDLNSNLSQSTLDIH

| SMILES | Dmax (p300) [%] | DC50 (p300) [nM] | DC50 (CBP) [nM] | Dmax (CBP) [%] |
| --- | --- | --- | --- | --- |
| Cc1oc2ccc(C#CCNC(=O)c3ccc(-c4cc5cccc(-c6cc(C(C)C)c7c(c6)n(C)c(=O)n7C)c5cn4)cn3)cc2c1C1CCC(=O)NC1=O (centres unmarked) [Example A248, N-(3-(3-(2,6-dioxo-piperidin-3-yl)-2-methylbenzofuran-5-yl)prop-2-yn-1-yl)-5-(8-(7-isopropyl-1,3-dimethyl-2-oxo-2,3-dihydro-1H-benzo [d]imidazol-5-yl)isoquinolin-3-yl) picolinamide] | > 80 | 10 to 99 | > 1000 | < 20 |
| Cn1c(=O)n(C)c2c(N3CCOCC3)nc(-c3cccc4cc(-c5ccc(C(=O)NCC#Cc6cc7c(C8CCC(=O)NC8=O)cccc7o6)nc5)ncc34)cc21 (centres unmarked) [Example A223, 5-(8-(1,3-dimethyl-4-morpholino-2-oxo-2,3-dihydro-1H-imidazo[4,5-c]pyridin-6-yl)isoquinolin-3-yl)-N-(3-(4-(2,6-dioxopiperidin-3-yl)benzofuran-2-yl)prop-2-yn-1-yl)picolinamide] | > 80 | < 1 | 100 to 999 | < 20 |
| Cn1c(=O)n(C)c2cc(-c3cccc4cc(-c5ccc(C(=O)NCC#Cc6cc7c([C@H]8CCC(=O)NC8=O)cccc7o6)nc5)ncc34)ccc21 [Example A170, (R)-5-(8-(1,3-dimethyl-2-oxo-2,3-dihydro-1H-benzo[d]imidazol-5-yl)isoquinolin-3-yl)-N-(3-(4-(2,6-dioxo-piperidin-3-yl)benzofuran-2-yl)prop-2-yn-1-yl)picolinamide] | > 80 | < 1 | > 1000 | < 20 |
| Cn1c(=O)n(C)c2cc(-c3cccc4cc(-c5ccc(C(=O)NCC#Cc6cc7c(C8CCC(=O)NC8=O)nccc7o6)nc5)ncc34)ccc21 (centres unmarked) [Example A213, 5-(8-(1,3-dimethyl-2-oxo-2,3-dihydro-1H-benzo[d]imidazol-5-yl)isoquinolin-3-yl)-N-(3-(4-(2,6-dioxo-piperidin-3-yl)furo[3,2-c]pyridin-2-yl)prop-2-yn-1-yl)picolinamide] | > 80 | < 1 | > 1000 | < 20 |
| CN1CCN(c2ccc3c(c2)n(C)c(=O)n3C)c2cnc(-c3ccc(C(=O)NCC#Cc4ccc5occ(C6CCC(=O)NC6=O)c5c4)nc3)nc21 (centres unmarked) [Example A122, 5-(5-(1,3-dimethyl-2-oxo-2,3-dihydro-1H-benzo[d]imidazol-5-yl)-8-methyl-5,6,7,8-tetrahydropteridin-2-yl)-N-(3-(3-(2,6-dioxopiperidin-3-yl)benzofuran-5-yl)prop-2-yn-1-yl)picolinamide] | > 80 | < 1 | > 1000 | < 20 |
| Cc1cc(-c2ncc3c(n2)OCCN3c2ccc3c(c2)n(C)c(=O)n3C)cnc1C(=O)NCC#Cc1cc2c([C@@H]3CCC(=O)NC3=O)cccc2o1 [Example A175, (S)-5-(5-(1,3-dimethyl-2-oxo-2,3-dihydro-1H-benzo[d]imidazol-5-yl)-6,7-dihydro-5H-pyrimido[4,5-b] [1,4]oxazin-2-yl)-N-(3-(4-(2,6-dioxo-piperidin-3-yl)benzofuran-2-yl)prop-2-yn-1-yl)-3-methylpicolinamide] | > 80 | 10 to 99 | > 1000 | < 20 |
| Cn1c(=O)n(C)c2cc(N3CCOc4nc(-c5ccc(C(=O)NCC#Cc6cc7c(C8CCC(=O)NC8=O)cccc7o6)nc5)ncc43)ccc21 (centres unmarked) [Example A165, 5-(5-(1,3-dimethyl-2-oxo-2,3-dihydro-1H-benzo[d]imidazol-5-yl)-6,7-dihydro-5H-pyrimido[4,5-b][1,4]oxazin-2-yl)-N-(3-(4-(2,6-dioxopiperidin-3-yl)benzofuran-2-yl)prop-2-yn-1-yl)picolinamide] | > 80 | 1 to 9.9 | > 1000 | < 20 |
| CC(C)c1cc(N2CCOc3cc(-c4ccc(C(=O)NCC#Cc5ccc6occ(C7CCC(=O)NC7=O)c6c5)nc4)ncc32)cc2c1n(C)c(=O)n2C (centres unmarked) [Example A58, N-(3-(3-(2,6-dioxopiperidin-3-yl)benzofuran-5-yl)prop-2-yn-1-yl)-5-(4-(7-isopropyl-1,3-dimethyl-2-oxo-2,3-dihydro-1H-benzo[d]imidazol-5-yl)-3,4-dihydro-2H-pyrido[4,3-b][1,4]oxazin-7-yl)picolinamide] | > 80 | 1 to 9.9 | > 1000 | < 20 |
| CC(C)c1cc(N(C)c2cnc(-c3ccc(C(=O)NCC#Cc4ccc5cnn(C6CCC(=O)NC6=O)c5c4)nc3)nc2)cc2c1n(C)c(=O)n2C (centres unmarked) [Example A211, N-(3-(1-(2,6-dioxo-piperidin-3-yl)-1H-indazol-6-yl)prop-2-yn-1-yl)-5-(5-((7-isopropyl-1,3-dimethyl-2-oxo-2,3-dihydro-1H-benzo [d]imidazol-5-yl)(methyl)amino)pyrimidin-2-yl)picolinamide] | > 80 | 1 to 9.9 | > 1000 | < 20 |
| CC(C)c1cc(-c2cccc3cc(-c4ccc(C(=O)NCC#Cc5ccc6oc(=O)n(C7CCC(=O)NC7=O)c6c5)nc4)ncc23)cc2c1n(C)c(=O)n2C (centres unmarked) [Example A14, N-(3-(3-(2,6-Dioxopiperidin-3-yl)-2-oxo-2,3-dihydrobenzo[d]oxazol-5-yl)prop-2-yn-1-yl)-5-(8-(7-isopropyl-1,3-dimethyl-2-oxo-2,3-dihydro-1H-benzo[d]imidazol-5-yl)isoquinolin-3-yl)picolinamide] | > 80 | 1 to 9.9 | 10 to 99 | 60 to 79 |

Now from value to compound:

| Dmax (p300) [%] | DC50 (p300) [nM] | DC50 (CBP) [nM] | Dmax (CBP) [%] | SMILES |
| --- | --- | --- | --- | --- |
| > 80 | < 1 | > 1000 | < 20 | Cc1cc2c(N3CCCc4nc(-c5ccc(C(=O)NCC#Cc6cc7c(C8CCC(=O)NC8=O)cccc7o6)nc5)ncc43)nc(N3CC(C)(O)C3)cc2n(C)c1=O (centres unmarked) [Example B168, N-(3-(4-(2,6-dioxopiperidin-3-yl)benzofuran-2-yl)prop-2-yn-1-yl)-5-(5-(7-(3-hydroxy-3-methylazetidin-1-yl)-1,3-dimethyl-2-oxo-1,2-dihydro-1,6-naphthyridin-5-yl)-5,6,7,8-tetrahydropyrido[3,2-d]pyrimidin-2-yl) picolinamide] |
| > 80 | 1 to 9.9 | > 1000 | < 20 | Cc1cc2c(N3CCOc4cc(-c5ccc(C(=O)NCC#Cc6ccc7occ(C8CCC(=O)NC8=O)c7c6)nc5)ncc43)cccc2n(C)c1=O (centres unmarked) [Example B77, 5-(4-(1,3-dimethyl-2-oxo-1,2-dihydroquinolin-5-yl)-3,4-dihydro-2H-pyrido[4,3-b][1,4]oxazin-7-yl)-N-(3-(3-(2,6-dioxopiperidin-3-yl)benzofuran-5-yl)prop-2-yn-1-yl)picolinamide] |
| > 80 | 1 to 9.9 | 10 to 99 | 20 to 39 | CCN(CC)c1cc2c(cc(C)c(=O)n2C)c(N2CCCc3nc(-c4ccc(C(=O)NCC#Cc5cc6c(C7CCC(=O)NC7=O)nccc6o5)nc4)ncc32)n1 (centres unmarked) [Example B25, 5-(5-(7-(diethylamino)-1,3-dimethyl-2-oxo-1,2-dihydro-1,6-naphthyridin-5-yl)-5,6,7,8-tetrahydropyrido[3,2-d]pyrimidin-2-yl)-N-(3-(4-(2,6-dioxopiperidin-3-yl)furo[3,2-c]pyridin-2-yl)prop-2-yn-1-yl)picolinamide] |
| 60 to 79 | 1 to 9.9 | > 1000 | < 20 | Cc1cc2c(N3CCCc4nc(-c5ccc(C(=O)NCC#Cc6cc7cccc(C8CCC(=O)NC8=O)c7o6)nc5)ncc43)cc(C3CCOCC3)cc2n(C)c1=O (centres unmarked) [Example B148, 5-(5-(1,3-dimethyl-2-oxo-7-(tetrahydro-2H-pyran-4-yl)-1,2-dihydroquinolin-5-yl)-5,6,7,8-tetrahydropyrido[3,2-d]pyrimidin-2-yl)-N-(3-(7-(2,6-dioxopiperidin-3-yl)benzofuran-2-yl)prop-2-yn-1-yl)picolinamide] |
| > 80 | 1 to 9.9 | > 1000 | < 20 | Cc1cc2c(-c3cccc4cc(-c5ccc(C(=O)NCC#Cc6ccc7occ(C8CCC(=O)NC8=O)c7c6)nc5)ncc34)nc(C(C)C)cc2n(C)c1=O (centres unmarked) [Example B102, N-(3-(3-(2,6-dioxopiperidin-3-yl)benzofuran-5-yl)prop-2-yn-1-yl)-5-(8-(7-isopropyl-1,3-dimethyl-2-oxo-1,2-dihydro-1,6-naphthyridin-5-yl)isoquinolin-3-yl)picolinamide] |
| > 80 | 1 to 9.9 | 10 to 99 | 20 to 39 | Cc1cc2c(N3CCOc4cc(-c5ccc(C(=O)NCC#Cc6ccc7occ(C8CCC(=O)NC8=O)c7c6)nc5)c(F)cc43)cc(N3CC(C)(O)C3)cc2n(C)c1=O (centres unmarked) [Example B63, N-(3-(3-(2,6-dioxopiperidin-3-yl)benzofuran-5-yl)prop-2-yn-1-yl)-5-(6-fluoro-4-(7-(3-hydroxy-3-methylazetidin-1-yl)-1,3-dimethyl-2-oxo-1,2-dihydroquinolin-5-yl)-3,4-dihydro-2H-benzo[b][1,4]oxazin-7-yl) picolinamide] |
| > 80 | 1 to 9.9 | > 1000 | < 20 | Cc1cc(-c2ncc(N(C)c3cc(C4CCOCC4)cc4c3cc(C)c(=O)n4C)cn2)cnc1C(=O)NCC#Cc1cc2c(C3CCC(=O)NC3=O)cccc2o1 (centres unmarked) [Example B59, 5-(5-((1,3-dimethyl-2-oxo-7-(tetrahydro-2H-pyran-4-yl)-1,2-dihydroquinolin-5-yl) (methyl)amino)pyrimidin-2-yl)-N-(3-(4-(2,6-dioxopiperidin-3-yl)benzofuran-2-yl)prop-2-yn-1-yl)-3-methylpicolinamide] |
